Reference: patent publication US20090325952A1, “PYRAZOLO[3,4-B]PYRIDINE COMPOUNDS, AND THEIR USE AS PDE4 INHIBITORS” (Glaxo Group Limited, priority 2006, published 2009)

Key:
[1] = target: T1, PDE6 (from bovine retina) (Bos taurus, UniProt P11541+P23439); assay: Inhibition of PDE6 activity (FP or SPA assays); assay type: biochemical; details: selectivity PDE4B over PDE6
T1 construct: PDE6 can be purified from bovine retina; from tissue; host or cells: bovine retina
T1 sequence (P11541 2-856 limits assumed): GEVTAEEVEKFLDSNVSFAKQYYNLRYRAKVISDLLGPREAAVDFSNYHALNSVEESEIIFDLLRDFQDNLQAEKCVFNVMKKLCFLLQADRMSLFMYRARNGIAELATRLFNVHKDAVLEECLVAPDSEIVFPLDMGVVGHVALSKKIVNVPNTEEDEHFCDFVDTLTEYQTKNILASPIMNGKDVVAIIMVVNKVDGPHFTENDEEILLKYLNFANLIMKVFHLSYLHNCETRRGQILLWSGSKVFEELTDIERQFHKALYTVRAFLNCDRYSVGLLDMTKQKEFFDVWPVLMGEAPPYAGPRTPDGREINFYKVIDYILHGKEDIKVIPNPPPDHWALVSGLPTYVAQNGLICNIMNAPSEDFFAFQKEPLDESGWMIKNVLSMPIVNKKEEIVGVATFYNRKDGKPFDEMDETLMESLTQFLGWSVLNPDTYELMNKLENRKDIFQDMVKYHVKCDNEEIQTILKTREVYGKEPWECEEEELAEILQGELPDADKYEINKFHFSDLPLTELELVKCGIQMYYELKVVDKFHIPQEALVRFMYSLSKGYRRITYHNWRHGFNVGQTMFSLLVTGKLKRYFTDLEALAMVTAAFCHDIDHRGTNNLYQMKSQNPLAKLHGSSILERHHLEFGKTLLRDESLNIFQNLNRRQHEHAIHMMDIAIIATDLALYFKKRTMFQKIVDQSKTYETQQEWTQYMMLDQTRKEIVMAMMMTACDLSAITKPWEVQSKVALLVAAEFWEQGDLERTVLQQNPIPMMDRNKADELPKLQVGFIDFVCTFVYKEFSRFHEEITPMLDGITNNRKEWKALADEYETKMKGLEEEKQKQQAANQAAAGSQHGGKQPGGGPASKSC
T1 sequence (P23439 2-850 limits assumed): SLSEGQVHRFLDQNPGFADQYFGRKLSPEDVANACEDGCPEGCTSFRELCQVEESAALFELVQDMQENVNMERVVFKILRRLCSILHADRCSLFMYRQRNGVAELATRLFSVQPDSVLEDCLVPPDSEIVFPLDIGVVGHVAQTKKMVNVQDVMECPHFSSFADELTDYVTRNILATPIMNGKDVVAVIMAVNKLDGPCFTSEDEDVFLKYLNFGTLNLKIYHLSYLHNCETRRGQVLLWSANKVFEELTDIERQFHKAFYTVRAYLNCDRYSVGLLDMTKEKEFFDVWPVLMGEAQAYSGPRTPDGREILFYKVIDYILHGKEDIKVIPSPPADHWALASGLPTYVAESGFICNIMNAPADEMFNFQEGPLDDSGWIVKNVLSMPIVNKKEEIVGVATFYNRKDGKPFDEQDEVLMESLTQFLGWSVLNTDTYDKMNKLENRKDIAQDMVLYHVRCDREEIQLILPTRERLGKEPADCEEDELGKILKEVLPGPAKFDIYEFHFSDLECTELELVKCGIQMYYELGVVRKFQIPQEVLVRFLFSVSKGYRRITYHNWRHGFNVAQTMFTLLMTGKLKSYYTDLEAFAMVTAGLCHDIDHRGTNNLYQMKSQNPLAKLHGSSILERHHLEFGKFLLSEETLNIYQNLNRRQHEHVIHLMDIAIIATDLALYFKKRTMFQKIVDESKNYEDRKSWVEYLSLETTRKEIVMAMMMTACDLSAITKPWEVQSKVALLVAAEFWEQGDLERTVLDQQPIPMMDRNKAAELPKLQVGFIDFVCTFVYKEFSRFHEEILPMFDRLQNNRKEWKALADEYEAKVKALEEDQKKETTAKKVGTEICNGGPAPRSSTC
From the text: PDE6 can be purified from bovine retina as described by: P. Catty and P. Deterre, “Activation and solubilization of the retinal cGMP-specific phosphodiesterase by limited proteolysis”, Eur. J. Biochem., 1991, 199, 263-269; A. Tar et al. “Purification of bovine retinal cGMP phosphodiesterase”, Methods in Enzymology, 1994, 238, 3-12; and/or D. Srivastava et al. “Effects of magnesium on cyclic GMP hydrolysis by the bovine retinal rod cyclic GMP phosphodiesterase”, Biochem. J, 1995, 308, 653-658.
(§1) The ability of compounds to inhibit catalytic activity at PDE4B or 4D (human recombinant), PDE3 (from bovine aorta), PDE5 (human recombinant) or PDE6 (from bovine retina) can optionally be determined by Scintillation Proximity Assay (SPA) in a 96-well format.
Test compounds (as a solution in DMSO, suitably about 2 microlitre (ul) volume of DMSO solution) are preincubated at ambient temperature (room temperature, e.g. 19-23° C.) in Wallac Isoplates (code 1450-514) with PDE enzyme in 50 mM Tris-HCl buffer pH 7.5, 8.3 mM MgCl2, 1.7 mM EGTA, 0.05% (w/v) bovine serum albumin for 10-30 minutes (usually 30 minutes). The enzyme concentration is adjusted so that no more than 20% hydrolysis of the substrate defined below occurs in control wells without compound, during the incubation. […] Bound radioactive product is measured using a WALLAC TRILUX 1450 Microbeta scintillation counter. […]

[2] = system: PDE3 (from bovine aorta); assay: Inhibition of PDE3 activity (FP or SPA assays); assay type: biochemical; details: selectivity PDE4B over PDE3
From the text: PDE3 can be purified from bovine aorta as described by H. Coste and P. Grondin, “Characterisation of a novel potent and specific inhibitor of type V phosphodiesterase”, Biochem. Pharmacol., 1995, 50, 1577-1585.
as §1
Test compounds (as a solution in DMSO, suitably about 2 microlitre (ul) volume of DMSO solution) are preincubated at ambient temperature (room temperature, e.g. 19-23° C.) in Wallac Isoplates (code 1450-514) with PDE enzyme in 50 mM Tris-HCl buffer pH 7.5, 8.3 mM MgCl2, 1.7 mM EGTA, 0.05% (w/v) bovine serum albumin for 10-30 minutes (usually 30 minutes). The enzyme concentration is adjusted so that no more than 20% hydrolysis of the substrate defined below occurs in control wells without compound, during the incubation. […] Bound radioactive product is measured using a WALLAC TRILUX 1450 Microbeta scintillation counter. […] Curves are analysed using ActivityBase and XLfit (ID Business Solutions Limited, 2 Ocean Court, Surrey Research Park, Guildford, Surrey GU2 7QB, United Kingdom) Results are expressed as pIC50 values. […]

Structure (SMILES): CCc1nc2c(cnn2CC)c(NC2CCOCC2)c1CNC(=O)c1ccc(NC(=O)CCCCCCCN(C)CCO)cc1 [Example 1B, N-{[1,6-diethyl-4-(tetrahydro-2H-pyran-4-ylamino)-1H-pyrazolo[3,4-b]pyridin-5-yl]methyl}-4-({8-[(2-hydroxyethyl)(methyl)amino]octanoyl}amino)benzamide]
- PDE4B inhibition compared with PDE6 inhibition (pIC50 values) [1]: inhibit PDE4B more strongly than they inhibit PDE3, PDE5 and PDE6
- PDE4B inhibition compared with PDE3 inhibition (pIC50 values) [2]: inhibit PDE4B more strongly than they inhibit PDE3, PDE5 and PDE6
